Literature values in patent publication US10413588B2, “Probiotic function of human intelectin” (Wisconsin Alumni Research Foundation, priority 2015, dated 2019).

Biological target: hIntL-1 (Homo sapiens, UniProt Q8WWA0)
Conditions: reported by Tsuji et al., 2001; read-out: apparent KD / apparent affinity for hIntL-1

Chain of hIntL-1 (Q8WWA0 19-298): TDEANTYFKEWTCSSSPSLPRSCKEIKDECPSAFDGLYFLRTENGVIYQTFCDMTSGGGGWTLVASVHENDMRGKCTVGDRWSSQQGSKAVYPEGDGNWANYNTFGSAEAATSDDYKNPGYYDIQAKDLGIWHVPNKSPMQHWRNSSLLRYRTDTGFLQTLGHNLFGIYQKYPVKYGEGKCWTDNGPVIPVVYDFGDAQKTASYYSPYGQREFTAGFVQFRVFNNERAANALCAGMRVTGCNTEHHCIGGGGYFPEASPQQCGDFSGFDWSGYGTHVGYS

For `O=C[C@H](O)[C@H](O)[C@H](O)CO` [D-ribose], the Kd is listed as 5 mM.
